≈ marks a conversion by molar mass, not a printed value.
Legend:
HL-60 = assay: Cytotoxicity against human HL60 cells; type: functional, cell-based
Bacillus subtilis = assay: Antimicrobial activity against Bacillus subtilis NBRC 3134; type: functional

Structure (SMILES)	IC50 (HL-60) [µM]	MIC (Bacillus subtilis) [µg/mL]
CCCCCC[C@H]1C(=O)O[C@H](C)[C@H](NC(=O)c2cccc(NC=O)c2O)C(=O)O[C@@H](C)[C@@H]1OC(=O)CC(C)C [ANTIMYCIN A]	45	
C[C@@H]1Cc2c(c(O)c3c(=O)cc4oc5c(O)cc(O[C@@H]6O[C@H](CO)[C@@H](O)[C@H](O)[C@H]6O)c6c(=O)c7c8c(c56)c4c3c2O[C@@]8(O)[C@@H](C)O[C@@H]7C)[C@@H](C)O1 [VIRIDAPHIN A1 GLUCOSIDE]	23	10 (≈ 14.2 µM)

Source: ChEMBL document CHEMBL1817637, “Viridaphin A₁ glucoside, a green pigment possessing cytotoxic and antibacterial activity from the aphid Megoura crassicauda” (J Nat Prod, 2011)
